Assay results as given in PMC6678576, “Spectroscopic Characterisation of the Naphthalene Dioxygenase from Rhodococcus sp. Strain NCIMB12038” (International Journal of Molecular Sciences, 2019).

Biological target: T1, naphthalene 1,2-dioxygenase (NDO; ISPNAR) from Rhodococcus sp. strain NCIMB12038 (Rhodococcus sp. NCIMB 12038, UniProt Q9X3R9)
T1 construct: gene narAa; native oxygenase component purified from naphthalene-grown Rhodococcus cells; alpha3beta3; Rieske [2Fe-2S] and mononuclear iron; with Naphthalene 1,2-dioxygenase small (beta) subunit
T1 sequence (Q9X3R9 1-470): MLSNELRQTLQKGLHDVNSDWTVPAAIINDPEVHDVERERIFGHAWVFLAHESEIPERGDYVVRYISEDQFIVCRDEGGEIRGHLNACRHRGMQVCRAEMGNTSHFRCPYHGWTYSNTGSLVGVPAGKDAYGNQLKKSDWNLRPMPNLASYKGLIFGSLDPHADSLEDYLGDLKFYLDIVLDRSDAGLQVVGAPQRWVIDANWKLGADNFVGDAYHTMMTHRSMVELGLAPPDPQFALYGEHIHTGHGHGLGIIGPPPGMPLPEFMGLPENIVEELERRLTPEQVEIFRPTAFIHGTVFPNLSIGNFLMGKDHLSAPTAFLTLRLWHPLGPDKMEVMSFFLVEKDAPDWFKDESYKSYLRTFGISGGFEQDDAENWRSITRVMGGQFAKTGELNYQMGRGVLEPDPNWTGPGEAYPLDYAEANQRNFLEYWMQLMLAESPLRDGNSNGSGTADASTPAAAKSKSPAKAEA
T1 sequence (Q7BSK6 1-172 partner): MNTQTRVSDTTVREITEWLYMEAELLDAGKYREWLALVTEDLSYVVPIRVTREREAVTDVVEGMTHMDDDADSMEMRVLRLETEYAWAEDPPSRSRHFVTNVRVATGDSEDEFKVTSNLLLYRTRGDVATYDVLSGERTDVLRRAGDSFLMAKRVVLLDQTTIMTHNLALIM
Experiment: EPR ([…] K) and UV-Vis of single turnover and peroxide shunt
Assay type: binding
Conditions: dithionite-reduced NDO with O2-saturated naphthalene, or H2O2 peroxide shunt; no reductase or ferredoxin; 50 mM Tris-HCl pH 7.8, 10% ethanol, 10% glycerol, 0.5 mM DTT

With c1ccc2ccccc2c1 [naphthalene] the “EPR (20 K) and UV-Vis of single turnover and peroxide shunt” value was “NDO, with reduced Rieske and mononuclear iron centres, is able to react with naphthalene”.
